Measured values from PubChem BioAssay AID1996.
≈ marks a conversion by molar mass, not a printed value.

details: buffer; pH 7.4; 200.0 µM

Row | Structure (SMILES) | solubility kinetic [µg/mL]
1 | Cc1ccc(O)c(Nc2ncnc3ccc([N+](=O)[O-])cc23)c1.Cl | 9.6
2 | CC1CCN(C(=O)COC(=O)c2ccc(Cl)nc2)CC1 | > 44.5
3 | Cc1ccc(NC(=O)CNC(=O)COc2ccccc2)nc1 | 14.9 (≈ 49.8 µM)
4 | COc1ccc(CCNC(=O)c2oc3ccc(OC)cc3c2C)cc1 | 2.3 (≈ 6.78 µM)
5 | COc1ccc(CNC(=O)c2cc(C(C)=O)c[nH]2)cc1 | 12.9 (≈ 47.4 µM)
6 | COc1ccc(NC(C)=O)cc1NC(=O)c1ccc(C#N)cc1 | > 46.4
7 | Cc1cnc(C(=O)N2CCN(c3ccc(C(F)(F)F)cn3)CC2)cn1 | 48 (≈ 137 µM)
8 | O=C(NC(=O)N1CCCCCC1)c1ccc(Cl)cc1 | > 42.1
9 | CC(=O)c1ccc(NC(=O)CN2CCCC2)cc1 | > 36.9
10 | CCOC(=O)c1c(C)[nH]c(NC(=O)Nc2ccc(NC(C)=O)cc2)c1C | 22.2 (≈ 61.9 µM)
11 | NC(=O)C1CCN(C(=O)CC2(CC(=O)O)CCCC2)CC1 | > 44.5
12 | CS(=O)(=O)Nc1ccccc1NS(C)(=O)=O | > 39.6
13 | Cc1ccccc1NC(=O)c1ccc(S(=O)(=O)N2CCCC2)cc1 | > 51.7
14 | O=C(NS(=O)(=O)c1ccccc1)c1cccc(Br)c1 | > 51
15 | O=C(NC1CC2CCC(C1)N2Cc1ccccc1)c1cccc(F)c1 (centres undefined) | > 50.8
16 | CN1C(=O)NC(c2ccc([N+](=O)[O-])cc2)C2=C1CC(C)(C)CC2=O (centres undefined) | > 49.4
17 | Cl.c1ccc(CNc2c3c(nc4ccccc24)CCC3)cc1 | > 46.6
18 | CCCN(CCC)C(=O)Cc1ccc(F)cc1 | 28 (≈ 118 µM)
19 | Cc1[nH]c(=O)[nH]c(=O)c1/C=C/C(=O)O | > 29.4
20 | CSc1ccccc1NC(=O)Nc1cccc2ccccc12 | < 0.3

Row | Structure (SMILES) | solubility kinetic [µg/mL]
21 | Cc1nc2ccc(NC(=O)CSc3ccccc3)cc2s1 | 46 (≈ 146 µM)
22 | CS(=O)(=O)N(CC(=O)N1CCN(Cc2ccccc2)CC1)c1cccc(F)c1 | 57.9 (≈ 143 µM)
23 | CC(C)COc1cccc(C(=O)NC2(C)CCS(=O)(=O)C2)c1 (centres undefined) | > 48.8
24 | O=C(NC(=S)Nc1ccc(Br)cc1F)C1CCCCC1 | 0.9 (≈ 2.51 µM)
25 | CCC1CCCCN1C(=O)CSc1nc(C)cc(C)n1 (centres undefined) | > 44
26 | O=C(COC(=O)C1CC2CCCC(C1)C2=O)Nc1ccccc1 (centres undefined) | 46.5 (≈ 147 µM)
27 | CC12CCC(C(=O)NCc3ccccc3Cl)(OC1=O)C2(C)C (centres undefined) | > 48.3
28 | COC(=O)CN1CCN(C(=O)c2ccco2)CC1 | > 37.8
29 | COc1ccc(C(=O)O/N=C(\N)Cc2ccc([N+](=O)[O-])cc2)c(OC)c1 | 39.3 (≈ 109 µM)
30 | CCc1cc(=O)[nH]c(SCC(=O)N2CCOCC2)n1 | > 42.5
31 | CCOC(=O)c1ccc(NC(=O)NCc2ccccc2OC)cc1 | 2.4 (≈ 7.31 µM)
32 | Cc1cc(C)c(S(=O)(=O)c2cccc(Cl)c2)c(=O)[nH]1 | > 44.7
33 | COC(CNS(=O)(=O)c1cccc2nonc12)OC | > 43.1
34 | O=C(Nc1ccc(CSc2ccccc2)cc1)c1ccco1 | < 0.7
35 | Cc1ccsc1-c1cc(C(=O)O)c2c(ccc3ccccc32)n1 | > 47.9
36 | C=CCNC(=O)c1ccccc1CCc1ccccc1 | > 39.8
37 | CCCNC(=O)CN(C)CC(=O)Nc1ccccc1C#N | > 43.3
38 | CN(CCC#N)S(=O)(=O)c1cc2c3c(c1)CCN3C(=O)CC2 | > 47.9
39 | Cc1ccccc1C1NC(=S)NC2=C1C(=O)CCC2 (centres undefined) | > 40.9
40 | Cc1c(Cl)cccc1NC(=O)NCc1ccc(C)n1C | 5.3 (≈ 18.2 µM)

Row | Structure (SMILES) | solubility kinetic [µg/mL]
41 | COc1ccccc1N1CC(C(=O)Nc2ccc(C)c(S(=O)(=O)N3CCOCC3)c2)CC1=O (centres undefined) | > 71
42 | CC(=O)/C=C(\C)Nc1c(C)n(C)n(-c2ccccc2)c1=O | > 42.8
43 | CC(=O)NC(c1cccc([N+](=O)[O-])c1)c1ccc2cccnc2c1O (centres undefined) | 3.5 (≈ 10.4 µM)
44 | CCOc1ccc(C(=O)COC(=O)CNC(=O)C2CCCCC2)cc1 | 9.5 (≈ 27.3 µM)
45 | O=C1Nc2ccc([N+](=O)[O-])cc2OC1CCN1CCOCC1 (centres undefined) | > 46.1
46 | CC(=O)N/C(=N/c1nc(C)cc(C)n1)Nc1ccc(C)cc1Cl | 0.2 (≈ 0.603 µM)
47 | CC(=O)c1ccc(N2CCN(C(=O)Nc3ccc(Cl)cc3)CC2)cc1 | 1.3 (≈ 3.63 µM)
48 | O=c1cc(-c2ccccc2)nc(SCCOc2ccccc2Cl)[nH]1 | 0.4 (≈ 1.11 µM)
49 | Cc1cccc(C(=O)NCCNC(=O)c2cnccn2)c1 | 38.5 (≈ 135 µM)
50 | CSc1cc(C)c(OCC(=O)Nc2ccc(NC(C)=O)cc2)c(C)c1 | 4.4 (≈ 12.3 µM)
51 | CC(C)c1ccc(NC(=S)NNC(=O)c2cccnc2)cc1 | > 47.2
52 | NS(=O)(=O)c1ccc(CNC(=O)c2ccc3c(c2)OCO3)cc1 | > 50.2
53 | COc1ccc(-c2cc(C(F)(F)F)nc(-n3ccnc3)n2)cc1 | 0.6 (≈ 1.87 µM)
54 | CCSc1nnc(NC(=O)c2c(C)noc2C)s1 | > 42.7
55 | COc1ccccc1CNC(=O)c1sccc1-c1ccccc1 | 14.4 (≈ 44.5 µM)
56 | CCC(C)C(NC(=O)c1ccccc1NC(=O)c1ccccc1)C(=O)O (centres undefined) | 50.7 (≈ 143 µM)
57 | CCCC1NC(=S)NC(C)=C1C(C)=O (centres undefined) | > 31.8
58 | CCN(CC)CC(=O)Nc1sc(C)cc1C(=O)c1ccc(C)cc1 | 0.4 (≈ 1.16 µM)
59 | COc1nccc(C(F)(F)F)c1C(=O)Nc1ccc(Cl)cc1 | 1.6 (≈ 4.84 µM)
